Test results taken from patent publication US20250228865A1, “COMPOUNDS FOR ENHANCING READ THROUGH OF GENES CONTAINING PREMATURE TERMINATION CODONS AND METHODS FOR MAKING AND USING THE SAME” (Sanofi US Services Inc., priority 2022, published 2025).

Assays:
[1] = system: recombinant human CFTR carrying the premature stop codon (PTC) mutation R1162X; experiment: CFTR-PTC mutant translation readthrough, Nanoluc tagged CFTR luminescence (R1162X cell line); type: cell-based; conditions: for CFTR R1162X ACTIVITY Fold 10 μM G-418: fold over 10 μM G-418, in combination with G418; for EC50: in combination with G418, 16HBE cells, read-out: CFTR R1162X ACTIVITY EC50
Description: (§1) 16HBE human bronchial epithelial cells (stably over-expressing recombinant human CFTR carrying the premature stop codon (PTC) mutation G542X or R1162X along with a Nanoluc tag incorporated into the CFTR channel within extracellular loop 4 in G542X cell line or C-terminus end in the R1162X cell line were seeded at 0.01×10^6 cells/well and grown in Minimal Essential Medium (MEM) as monolayers in 384 well plates and incubated at 37° C. with 5% CO2. Media was changed every other day until day of experiment. Agents to be evaluated were made up in separate 384 well, polypropylene plates at a 2X the final desired test concentration. Test agent 10-point concentration response curves were constructed using the Labcyte Echo 555 acoustic dispenser. Test agents were typically tested at a max final test concentrations of 50 μM with sequential 2-fold lower concentrations below this in the absence or presence of a fixed 10 μM concentration of the aminoglycoside G418 made up in MEM growth media (reduced Serum Media+HEPES Buffer+2.4 g/L Sodium Bicarbonate+L-Glutamine containing CFTR corrector VX-809 (3 μM)). Treatment with 10 μM G418 alone produced approximately 10% of the response observed with a maximally effective concentration of G418 (typically 125-250 μM). Test agent effects in presence of 10 μM G418 were compared to control wells on the plate containing a maximally effective concentration of G418 (typically 125-250 μM) made up in the same media. 25 ul of test agents/control solutions were transferred from the compound plate to the cell plate, which already contained 25 ul/well of cell plating media, using an Integra Viaflo 384. Cell plates were incubated with the compounds for 48 hours, at which time they were processed using Nanoluc luminescence Kit (Promega Nano-Glo Live Cell Assay System) to measure CFTR-PTC mutant translation readthrough. Luminescence was measured as follows. Cell plates were removed from the incubator and allowed to equilibrate to room temperature for 20 minutes. Media was removed from all wells and the plates were blotted to remove excess remaining volume. Nano-Glo Live Cell Substrate was diluted 1:20 in the appropriate amount of Nano-Glo LCS Dilution Buffer to accommodate the number of cell plates being tested. The substrate/dilution buffer mix was then diluted 1:3 with MEM media to make the appropriate volume for the number of plates being tested. The substrate/dilution buffer/OptiMEM mix was added across the Nanoluc testing cell plates and the plates were read for luminescence signal immediately. Test agent effects on CFTR translation readthrough was determined by normalizing any observed increase in luminescence induced by 48 hours pretreatment with test compound to the magnitude of luminescence increase produced by pretreatment with a maximally effective concentration of the reference readthrough enhancing agent G418 (125-250 μM).

[2] = system: recombinant human CFTR carrying the premature stop codon (PTC) mutation G542X; experiment: CFTR-PTC mutant translation readthrough, Nanoluc tagged CFTR luminescence (G542X cell line); type: cell-based; conditions: in combination with G418, G542X cell line; for CFTR G542X ACTIVITY Fold 10 μM G-418: fold over 10 μM G-418; for EC50: 16HBE cells
Description: as §1

SMILES	EC50 [1]	EC50 [2]	CFTR R1162X ACTIVITY Fold 10 μM G-418 [1]	CFTR G542X ACTIVITY Fold 10 μM G-418 [2]
CC(O)C1CN(c2ccc(OCc3c(Cl)cccc3Cl)cc2)C(=O)O1 (centres unmarked) [3-[4-[(2,6-dichlorophenyl)methoxy]phenyl]-5-(1-hydroxyethyl)oxazolidin-2-one]	> 10000 nM	1000 to 10000 nM	B′ (B′ = ≥5X to <10X)	A′ (A′ = ≥10X)
OCc1cc(-c2ncc(OCc3c(Cl)cccc3Cl)cn2)no1 [[3-[5-[(2,6-dichlorophenyl)methoxy]pyrimidin-2-yl]isoxazol-5-yl]methanol]	1000 to 10000 nM	< 1000 nM	A′ (A′ = ≥10X)	A′ (A′ = ≥10X)
COc1cccc(Br)c1COc1ccc(N2CC(CO)OC2=O)cc1 (centres unmarked)	> 10000 nM	> 10000 nM	B′ (B′ = ≥5X to <10X)	A′ (A′ = ≥10X)
NCc1nnc(-c2ccc(OCc3c(Cl)cccc3Cl)cc2)o1 [Example 226, [5-[4-[(2,6-dichlorophenyl)methoxy]phenyl]-1,3,4-oxadiazol-2-yl]methanamine]	1000 to 10000 nM	1000 to 10000 nM	B′ (B′ = ≥5X to <10X)	B′ (B′ = ≥5X to <10X)
O=C1OC(CO)CN1c1ccc(OCc2c(Cl)cccc2Cl)c(F)c1 (centres unmarked)	1000 to 10000 nM	1000 to 10000 nM	C′ (C′ = <5X)	B′ (B′ = ≥5X to <10X)
O=c1[nH]ncc2cc(OCc3c(Cl)cccc3Cl)ccc12 [6-[(2,6-dichlorophenyl)methoxy]-2H-phthalazin-1-one]	1000 to 10000 nM	> 10000 nM	A′ (A′ = ≥10X)	B′ (B′ = ≥5X to <10X)
Cc1ccc(C(F)(F)F)c(COc2ccc(-n3cc(CO)nn3)cc2)c1F	> 10000 nM	1000 to 10000 nM	B′ (B′ = ≥5X to <10X)	B′ (B′ = ≥5X to <10X)
O=C1OC(CO)CN1c1ccc(OCc2cc(Cl)cc(Cl)c2)cn1 (centres unmarked) [3-[5-[(3,5-dichlorophenyl)methoxy]-2-pyridyl]-5-(hydroxymethyl)oxazolidin-2-one]	1000 to 10000 nM	1000 to 10000 nM	A′ (A′ = ≥10X)	A′ (A′ = ≥10X)
OCc1ncn(-c2ccc(OCc3c(Cl)cccc3OC(F)(F)F)cc2)n1	1000 to 10000 nM	1000 to 10000 nM	A′ (A′ = ≥10X)	A′ (A′ = ≥10X)
Cc1cccc(C)c1COc1ccc(N2CC(CO)OC2=O)cc1 (centres unmarked) [3-[4-[(2,6-dimethylphenyl)methoxy]phenyl]-5-(hydroxymethyl)oxazolidin-2-one]	> 10000 nM	1000 to 10000 nM	A′ (A′ = ≥10X)	B′ (B′ = ≥5X to <10X)
OCc1cn(-c2ccc(CCc3c(Cl)cccc3Cl)cc2)cn1 [[1-[4-[2-(2,6-dichlorophenyl)ethyl]phenyl]imidazol-4-yl]methanol]	> 10000 nM	1000 to 10000 nM	A′ (A′ = ≥10X)	B′ (B′ = ≥5X to <10X)

The next lines start with results.

EC50 [1]	EC50 [2]	SMILES	CFTR R1162X ACTIVITY Fold 10 μM G-418 [1]	CFTR G542X ACTIVITY Fold 10 μM G-418 [2]
< 1000 nM	< 1000 nM	CC1CN(c2ncc(OCc3c(Cl)cccc3Cl)cn2)CCC1O (centres unmarked) [1-[5-[(2,6-dichlorophenyl)methoxy]pyrimidin-2-yl]-3-methyl-piperidin-4-ol]	A′ (A′ = ≥10X)	A′ (A′ = ≥10X)
< 1000 nM	< 1000 nM	Cc1cccc(C(F)(F)F)c1COc1cnc(-n2cc(-c3ccccn3)nn2)nc1	B′ (B′ = ≥5X to <10X)	A′ (A′ = ≥10X)
1000 to 10000 nM	< 1000 nM	NC[C@H]1CN(c2ncc(OCc3c(Cl)cccc3Cl)cn2)CCO1	A′ (A′ = ≥10X)	A′ (A′ = ≥10X)
1000 to 10000 nM	1000 to 10000 nM	COC1CCN(c2ncc(OCc3c(Cl)cccc3Cl)cn2)C1 (centres unmarked) [5-[(2,6-dichlorophenyl)methoxy]-2-(3-methoxypyrrolidin-1-yl)pyrimidine]	B′ (B′ = ≥5X to <10X)	A′ (A′ = ≥10X)
1000 to 10000 nM	< 1000 nM	Cc1cccc(C(F)(F)F)c1COc1ccc(N2C(=O)CN(C)C2=O)cc1	A′ (A′ = ≥10X)	A′ (A′ = ≥10X)
1000 to 10000 nM	1000 to 10000 nM	O[C@H]1CCN(c2ncc(OCc3c(Cl)cccc3Cl)cn2)C1 [(3S)-1-[5-[(2,6-dichlorophenyl)methoxy]pyrimidin-2-yl]pyrrolidin-3-ol]	A′ (A′ = ≥10X)	A′ (A′ = ≥10X)
1000 to 10000 nM	> 10000 nM	FC(F)(F)c1cccc(Cl)c1COc1cnc(N2CCC3(CCCNC3)C2)nc1 (centres unmarked)	A′ (A′ = ≥10X)	A′ (A′ = ≥10X)
1000 to 10000 nM	1000 to 10000 nM	NC(=O)C1CN(c2ncc(OCc3c(Cl)cccc3C(F)(F)F)cn2)CC(=O)N1 (centres unmarked)	C′ (C′ = <5X)	C′ (C′ = <5X)
1000 to 10000 nM	1000 to 10000 nM	O=C(CO)N1CCN(c2ncc(OCc3c(Cl)cccc3Cl)cn2)CC1	A′ (A′ = ≥10X)	A′ (A′ = ≥10X)
1000 to 10000 nM	< 1000 nM	NCC1CN(c2ncc(OCc3c(Cl)cccc3Cl)cn2)CCO1 (centres unmarked) [[4-[5-[(2,6-dichlorophenyl)methoxy]pyrimidin-2-yl]morpholin-2-yl]methanamine]	A′ (A′ = ≥10X)	A′ (A′ = ≥10X)
1000 to 10000 nM	1000 to 10000 nM	O=C(O)C1CCN(c2ncc(OCc3c(Cl)cccc3C(F)(F)F)cn2)CC1 [1-(5-{[2-chloro-6-(trifluoromethyl)phenyl]methoxy}pyrimidin-]	C′ (C′ = <5X)	C′ (C′ = <5X)
< 1000 nM	< 1000 nM	OCc1cn(-c2ccc(OCc3c(Cl)cccc3Cl)cn2)nn1 [[1-[5-[(2,6-dichlorophenyl)methoxy]-2-pyridyl]triazol-4-yl]methanol]	A′ (A′ = ≥10X)	A′ (A′ = ≥10X)
< 1000 nM	< 1000 nM	CCc1cccc(C(F)(F)F)c1COc1ccc(N2CCOC(CO)C2)cc1 (centres unmarked) [[4-[4-[[2-ethyl-6-(trifluoromethyl)phenyl]methoxy]phenyl]morpholin-2-yl]methanol]	A′ (A′ = ≥10X)	A′ (A′ = ≥10X)
1000 to 10000 nM	1000 to 10000 nM	O=C(O)C1CCN(c2ncc(OCc3c(Cl)cccc3C(F)(F)F)cn2)CC1 [1-[5-[[2-chloro-6-(trifluoromethyl)phenyl]methoxy]pyrimidin-]	A′ (A′ = ≥10X)	A;
< 1000 nM	< 1000 nM	Cc1cccc(C(F)(F)F)c1COc1cnc(N2CCOC(CN)C2)nc1 (centres unmarked)	A′ (A′ = ≥10X)	A′ (A′ = ≥10X)
